# Laboratory results reported in publication PMC9855884, “Glycosylated Lipopeptides—Synthesis and Evaluation of Antimicrobial Activity and Cytotoxicity” (Biomolecules, 2023).
# Where a SMILES comes first, the peptide text is derived from it. The star is where a group is joined. βGlcNAc = CC(=O)N[C@@H]1[C@@H](O)[C@H](O)[C@@H](CO)O[C@H]1*; Stearoyl = CCCCCCCCCCCCCCCCCC(=O)*; Palmitoyl = CCCCCCCCCCCCCCCC(=O)*; Myristoyl = CCCCCCCCCCCCCC(=O)*
# Columns and labels:
# S. aureus ATCC 33591 = assay type: cell-based, Staphylococcus aureus; conditions: ATCC 33591, 18 h
# Protocol: (§1) The Acinetobacter baumannii ATCC BAA-1605, Enterococcus faecium ATCC 700221, Klebsiella aerogenes ATCC 13048, Klebsiella pneumoniae ATCC 700603, Pseudomonas aeruginosa ATCC 9027, Staphylococcus aureus ATCC 33591, Candida glabrata ATCC 15126, strains were acquired from the American Type Culture Collection (ATCC). All the strains were stored at −80 °C in Roti-Store cryo vials and were transferred into fresh Mueller–Hinton broth (MHB, Becton Dickinson, Warsaw, Poland) for bacteria or RPMI-1640 (Sigma-Aldrich, Steinheim, Germany) for fungi before the tests and incubated for 24 h at 37 °C. Then, the cultures were seeded on the Mueller–Hinton agar (BioMaxima, Lublin, Poland) or Sabouraud dextrose agar (SDA, BioMaxima, Lublin, Poland) plates, respectively, and incubated as just mentioned. These agar cultures were used for further microbiological assays. Cell densities for all assays were adjusted spectrophotometrically (Multiskan GO Microplate Spectrophotometer, Thermo Fisher Scientific, Vantaa, Finland) at 600 and 530 nm for bacteria and fungi, respectively.
# (§2) The MICs were determined using a broth microdilution method according to the Clinical and Laboratory Standard Institute guidelines. For this purpose, initial inoculums of bacteria (5 × 10^5 CFU/mL) in MHB and yeasts (2 × 10^3 CFU/mL) in RPMI-1640 with 2% D-glucose were exposed to the ranging concentration of lipopeptides (1–512 μg/mL) and incubated at 37 °C for 18 h and 24 h, respectively. The experiments were conducted on 96-well microtiter polystyrene plates (Kartell, Italy). The growth was assessed visually after incubation and the MIC was assumed as the lowest peptide concentration at which a noticeable growth of microorganisms was inhibited. All experiments were conducted in triplicate.
# [1] = Determination of peptide hydrophobicity with RP-HPLC (adjusted retention time); assay type: physicochemical; conditions: RP-HPLC as measure of hydrophobicity; Waters X-Bridge Shield RP-18 3.0 × 100 mm, 3.5 μm; linear 20–80% acetonitrile in water over 30 min, 0.1% TFA; 0.5 mL/min; 25.0 °C; peptide 1 g/L in water (0.1% TFA); UV 214 nm; triplicate
# Protocol: To determine peptide hydrophobicity, a Waters Alliance e2695 system with a Waters 2998 PDA Detector was used. All analyses were carried out on a Waters X-Bridge Shield RP-18 column (3.0 × 100 mm, 3.5 μm particle size, 130 Å pore size). The peptides were dissolved in water (0.1% TFA, v/v) up to a concentration of 1 g/L. UV detection at 214 nm was used, and samples (10 μL) were eluted with a linear 20–80% acetonitrile gradient in deionized water over 30 min at 25.0 ± 0.1 °C. The mobile phase flow rate was 0.5 mL/min. Both eluents contained 0.1% (v/v) of TFA. Each peptide sample was analyzed in triplicate. Maximum standard deviation and coefficient of variation were 0.046 and 0.23%, respectively.
# After synthesis and purification, all the products were analyzed with MS and HPLC to confirm purity and identity of the compounds. […] The chromatographic analyses were performed with RP-HPLC; retention time refers to hydrophobicity of the lipopeptide.
# [2] = tested on: K. pneumoniae ATCC 700603; assay type: cell-based, Klebsiella pneumoniae; conditions: ATCC 700603, 18 h
# Protocol: as §1, §2
# P. aeruginosa ATCC 9027 = assay type: cell-based, Pseudomonas aeruginosa; conditions: ATCC 9027, 18 h
# Protocol: as §1, §2
# [3] = tested on: human red blood cells (RBCs); experiment: Hemolysis assay; assay type: cell-based; conditions: human RBCs 4% (v/v) in PBS, 60 min, 37 °C, absorbance 540 nm, 1–512 µg/mL; triplicate
# Protocol: The hemolysis assay was conducted using a procedure described previously. For this purpose, fresh human red blood cells (RBCs) with EDTA anticoagulant were washed three times with phosphate-buffer saline (PBS) using centrifugation at 800× g for 10 min and resuspended in PBS. Then, the stock solution of RBCs was added to serial dilution of peptides on 96-well polystyrene plates to reach a final volume of 100 µL with 4% concentration of erythrocytes (v/v) over the concentration range of 1–512 µg/mL of the tested compounds. The control wells for the 0% and 100% hemolysis consisted of RBCs suspended in PBS and 1% of Triton X–100, respectively. Subsequently, the plates were incubated for 60 min at 37 °C and then centrifuged at 800× g for 10 min at 4 °C (Sorvall ST 16R Centrifuge, Thermo Scientific, Osterode am Harz, Germany). After centrifugation, the supernatant was carefully […] to new microtiter plates and the release of hemoglobin was monitored through absorbance measurements at 540 nm (Multiskan™ GO Microplate Spectrophotometer, Thermo Scientific). All experiments were conducted in triplicate.
# The lipopeptides were tested against human erythrocytes in order to evaluate their hemolytic activity. Moreover, selectivity indexes (SI) were calculated by dividing the HC50 by MIC. […] In some cases, glycosylation led to suppressed toxicity, e.g., a comparison of C14 peptides analogs: 1–3 and 10–12. On the other hand, an increase in toxicity of C18 analogs (7–9 vs. 16–18) was found for glycosylated USCLs. For this reason, SI was calculated to provide a correlation between antimicrobial activity and toxicity. […] Among gUSCLs: 10 and 11 with C14 fatty acid and 16–18 should be highlighted owing to their high selectivity against E. fecium and C. glabrata.
# S. aureus biofilm = assay type: cell-based, Staphylococcus aureus; conditions: 24 h
# Protocol: as §1
# (§3) The MBECs were determined as previously described, using 96-well polystyrene flat-bottom plates. For this purpose, 24 h cultures of microorganisms were diluted to obtain a final density of 5.0 × 10^5 CFU/mL and 2.0 × 10^5 CFU/mL of bacteria and fungi, respectively. Microorganisms were diluted in MHB or RPMI-1640 with 2% D-glucose (bacteria and fungi, respectively). Briefly, 100 µL of cell suspension was added into the test plates. After 24 h of incubation at 37 °C, the wells were rinsed three times with a phosphate buffer saline (PBS, pH 7.4) to remove non-adherent cells. Subsequently, 100 μL of the test compounds over the concentration range (1–512 μg/mL) were added to each well. After 24 h of incubation at 37 °C, 20 μL of a cell viability reagent was added (resazurin, 4 g/L; Sigma Aldrich, St. Louis, MO, USA). The MBEC was read after 1 h. The determined values were recorded as the lowest concentration at which the reduction of resazurin (from blue to pink) […]. All experiments were conducted in triplicate.
# K. pneumoniae biofilm = assay type: cell-based, Klebsiella pneumoniae; conditions: 24 h
# Protocol: as §1, §3
# C. glabrata biofilm = assay type: cell-based, Candida glabrata; conditions: 24 h
# Protocol: as §1, §3
# A. baumannii biofilm = assay type: cell-based, Acinetobacter baumannii; conditions: 24 h
# Protocol: as §1, §3
Compound,MIC (S. aureus ATCC 33591) [µg/mL],Adjusted Retention Time [1] [min],MIC [2] [µg/mL],MIC (P. aeruginosa ATCC 9027) [µg/mL],HC50 (hemolytic activity) [3] [µg/mL],MBEC (S. aureus biofilm) [µg/mL],MBEC (K. pneumoniae biofilm) [µg/mL],MBEC (C. glabrata biofilm) [µg/mL],MBEC (A. baumannii biofilm) [µg/mL]
"CCCCCCCCCCCCCC(=O)N[C@@H](CCCNC(=N)N)C(=O)N[C@@H](CO)C(=O)N[C@@H](CCCNC(=N)N)C(N)=O [Peptide 2, C14-RSR-NH2] (Myristoyl-Arg-Ser-Arg-NH2)",8,15.96,512,64,186.64 ± 2.14,,,,
"CCCCCCCCCCCCCC(=O)N[C@@H](CCCNC(=N)N)C(=O)N[C@@H](CCCNC(=N)N)C(=O)N[C@@H](CO)C(N)=O [Peptide 3, C14-RRS-NH2] (Myristoyl-Arg-Arg-Ser-NH2)",16,15.91,512,64,227.01 ± 5.69,,,,
"CCCCCCCCCCCCCCCC(=O)N[C@@H](CO)C(=O)N[C@@H](CCCNC(=N)N)C(=O)N[C@@H](CCCNC(=N)N)C(N)=O [Peptide 4, C16-SRR-NH2] (Palmitoyl-Ser-Arg-Arg-NH2)",8,20.55,512,16,75.46 ± 0.73,,,,
"CCCCCCCCCCCCCCCC(=O)N[C@@H](CCCNC(=N)N)C(=O)N[C@@H](CO)C(=O)N[C@@H](CCCNC(=N)N)C(N)=O [Peptide 5, C16-RSR-NH2] (Palmitoyl-Arg-Ser-Arg-NH2)",8,19.93,64,64,82.21 ± 2.07,,,,
"CCCCCCCCCCCCCCCC(=O)N[C@@H](CCCNC(=N)N)C(=O)N[C@@H](CCCNC(=N)N)C(=O)N[C@@H](CO)C(N)=O [Peptide 6, C16-RRS-NH2] (Palmitoyl-Arg-Arg-Ser-NH2)",8,19.89,32,16,75.95 ± 1.57,,,,
"CCCCCCCCCCCCCCCCCC(=O)N[C@@H](CO)C(=O)N[C@@H](CCCNC(=N)N)C(=O)N[C@@H](CCCNC(=N)N)C(N)=O [Peptide 7, C18-SRR-NH2] (Stearoyl-Ser-Arg-Arg-NH2)",16,24.78,16,64,82.31 ± 1.36,512,512,128,512
"CCCCCCCCCCCCCC(=O)N[C@@H](CO[C@@H]1O[C@H](CO)[C@@H](O)[C@H](O)[C@H]1NC(C)=O)C(=O)N[C@@H](CCCNC(=N)N)C(=O)N[C@@H](CCCNC(=N)N)C(N)=O [Peptide 10, C14-S(GlcNAc)RR-NH2] (Myristoyl-Ser(βGlcNAc)-Arg-Arg-NH2)",64,14.47,>512,256,>512,,,,
"CCCCCCCCCCCCCC(=O)N[C@@H](CCCNC(=N)N)C(=O)N[C@@H](CO[C@@H]1O[C@H](CO)[C@@H](O)[C@H](O)[C@H]1NC(C)=O)C(=O)N[C@@H](CCCNC(=N)N)C(N)=O [Peptide 11, C14-RS(GlcNAc)R-NH2] (Myristoyl-Arg-Ser(βGlcNAc)-Arg-NH2)",64,14.82,>512,128,364.17 ± 105.10,,,,
"CCCCCCCCCCCCCC(=O)N[C@@H](CCCNC(=N)N)C(=O)N[C@@H](CCCNC(=N)N)C(=O)N[C@@H](CO[C@@H]1O[C@H](CO)[C@@H](O)[C@H](O)[C@H]1NC(C)=O)C(N)=O [Peptide 12, C14-RRS(GlcNAc)-NH2] (Myristoyl-Arg-Arg-Ser(βGlcNAc)-NH2)",32,15.01,>512,256,345.72 ± 51.94,,,,
"CCCCCCCCCCCCCCCC(=O)N[C@@H](CO[C@@H]1O[C@H](CO)[C@@H](O)[C@H](O)[C@H]1NC(C)=O)C(=O)N[C@@H](CCCNC(=N)N)C(=O)N[C@@H](CCCNC(=N)N)C(N)=O [Peptide 13, C16-S(GlcNAc)RR-NH2] (Palmitoyl-Ser(βGlcNAc)-Arg-Arg-NH2)",16,18.26,256,32,95.39 ± 2.40,,,,
"CCCCCCCCCCCCCCCC(=O)N[C@@H](CCCNC(=N)N)C(=O)N[C@@H](CO[C@@H]1O[C@H](CO)[C@@H](O)[C@H](O)[C@H]1NC(C)=O)C(=O)N[C@@H](CCCNC(=N)N)C(N)=O [Peptide 14, C16-RS(GlcNAc)R-NH2] (Palmitoyl-Arg-Ser(βGlcNAc)-Arg-NH2)",16,18.63,128,32,73.34 ± 1.63,,,,
"CCCCCCCCCCCCCCCC(=O)N[C@@H](CCCNC(=N)N)C(=O)N[C@@H](CCCNC(=N)N)C(=O)N[C@@H](CO[C@@H]1O[C@H](CO)[C@@H](O)[C@H](O)[C@H]1NC(C)=O)C(N)=O [Peptide 15, C16-RRS(GlcNAc)-NH2] (Palmitoyl-Arg-Arg-Ser(βGlcNAc)-NH2)",16,18.80,256,64,111.45 ± 11.65,,,,
